EP2384752A1, “Combination preparation comprising a phosphodiesterase inhibitor and a COX inhibitor for treating cancer” (Universitätsklinikum Hamburg-Eppendorf, priority 2010, dated 2011)

Legend:
[1] = tested on: Zelllinien des kleinzelligen Bronchialkarzinoms H69, SW2, OH1, OH3 und H82; experiment: XTT cell proliferation test, single agents Indometacin or IBMX; assay type: cell-based
Text: Vor Beginn der Versuche zur Zellproliferation wurde zunächst für jede Zelllinie eine Eichkurve erstellt, um die optimale Zellzahl pro ml für die nachfolgenden Versuchsreihen zu ermitteln. Dafür wurde das Zellproliferationskit XTT (Roche, Penzberg, Deutschland) verwendet. Hierbei wird durch ein in allen vitalen Zellen vorhandenes Enzym das gelbe Tetrazoliumsalz XTT zum orangen Salz Formazan reduziert. Somit stellt die Extinktion der jeweiligen Zellkulturprobe ein Maß für die Anzahl der vitalen Zellen dar.
Die Zelllinien wurden in sieben verschiedenen Konzentrationen zwischen 10^4 und 10^7 Zellen pro ml in Mikrotiterplatten mit 96 Vertiefungen ausgesät. In jede Vertiefung wurde zunächst 10 µl PBS (pH 7,4) vorgelegt und dann 90 µl der Zellsuspension mit der jeweiligen Zellzahl pro ml zugegeben. Für jede Zelllinie wurden sechs parallele Ansätze hergestellt. Nach 72 Stunden Inkubation unter Standardbedingungen wurden 50 µl XTT Labeling Mixture pro Vertiefung zugegeben. Nach sechs Stunden wurde die Absorption bei 450 nm in einem Dynatech MR 3.13 Mikroelisa Reader gemessen und anhand der erzielten Werte Eichkurven erstellt. Figur 1 zeigt die Eichkurven für die Zelllinien H69, SW2, OH1, OH3 und H82OH1-Zellen. Die Zellzahlen wurden so gewählt, dass sich die Zellen bei ungehindertem Wachstum in der exponentiellen Wachstumsphase befanden. So ergab sich eine Konzentration von 160.000 Zellen pro ml für die Zelllinien OH3 und SW2, 300.000 Zellen pro ml für OH1, 500.000 Zellen pro ml für H69 und 750.000 Zellen pro ml für H82.
Dieser Versuch wurde mit allen oben genannten Zelllinien durchgeführt. Dafür wurden zunächst Lösungen der einzelnen Wirkstoffe in die Vertiefungen einer 96-Loch-Mikrotiterplatte gegeben. Die in Kulturmedium vorliegenden Zellsuspensionen wurden zugegeben, sodass sich ein Gesamtvolumen von 100 µl pro Vertiefung ergab.
Die Zellzahl für die jeweiligen Zelllinien betrug für SW2 205.700 Zellen pro ml, für H82 964.000 Zellen pro ml, für OH1 385.700 Zellen pro ml, für OH3 205.700 Zellen pro ml und für H69 643.000 Zellen pro ml. Da zum Lösen von Indometacin 5% Ethanol und zum Lösen von IBMX 1 % Ethanol verwendet wurde, bestand die Kontrolle aus 70 µl Zellsuspension mit der jeweiligen Zellzahl pro ml, 20 µl Medium und 10 µl Alkoholkontrolle mit einer Konzentration von 6% Ethanol. Im Gesamtvolumen von 100 µl ergab sich somit eine Alkoholkonzentration von 0,6%. Der Leerwert bestand aus 100 µl Medium. Jede gewählte Kombination der Wirkstoffe in den unterschiedlichen Konzentrationen wurde pro Versuch sechsfach getestet.

H69 Zellen = experiment: XTT cell proliferation test, Meloxicam, Sildenafil and their combination; assay type: cell-based; details: Meloxicam alone, compared with Indomethacin
Experimental: Die zu untersuchenden Zelllinien wurden mit den in den Figuren angegeben Konzentrationen von Indometacin und IBMX behandelt. Die Proliferationsversuche wurden in 96-Loch-Mikrotiterplatten durchgeführt; das Gesamtvolumen pro Vertiefung betrug 100 µl. 80 µl Zellsuspension wurde pro Vertiefung verwendet. Die Zellzahl der jeweils verwendeten Suspensionen betrug für SW2 180.000 Zellen pro ml, für OH1 338.000 Zellen pro ml, für OH3 180.000 Zellen pro ml und für H69 563.000 Zellen pro ml. Da zum Lösen sowohl von Indometacin 20% Ethanol als auch von IBMX 20% Ethanol verwendet wurde, bestand die Kontrolle aus 80 µl Zellsuspension mit der jeweiligen Zellzahl pro ml und 20 µl Alkoholkontrolle mit einer Konzentration von 20% Ethanol. Im Gesamtvolumen von 100 µl ergab sich so eine Alkoholkonzentration von 4%. Eine weitere Kontrolle bestand aus 80 µl Zellsuspension mit der jeweiligen Zellzahl pro ml und 20 µl Kulturmedium, um den wachstumshemmenden Effekt vom Ethanol erkennen zu können. Der Leerwert bestand aus 100 µl Kulturmedium.
H69 Zellen wurden wie in Beispiel 5 beschrieben mit Meloxicam und Sildefanil behandelt. […] Die Ergebnisse sind in Figur 10 dargestellt. Auch hier lässt sich eine signifikant synergistische Wirkung auf die Proliferation der H69-Zellen beobachten.

[2] = 72 h, read-out: Inhibierung auf einen Wert von % der Alkoholkontrolle

CC(C)Cn1c(=O)n(C)c(=O)c2[nH]cnc21 [IBMX, 1-Methyl-3-(2-methylpropyl)-7H-purine-2,6-dione]
activity at 1500 µM ([1]; 72 h, 1,5 mM IBMX, cell line not stated, read-out: Hemmung, % der Alkoholkontrolle): 51%
activity at 1250 µM ([1]; 72 h, 1,25 mM IBMX, cell line not stated, read-out: Hemmung, % der Alkoholkontrolle): 52%
activity at 2000 µM ([1]; 72 h, 2,0 mM IBMX, cell line not stated, read-out: Hemmung, % der Alkoholkontrolle): 45%
activity at 750 µM ([1]; 72 h, from 0,75 mM IBMX, cell line not stated, data not shown, read-out: Hemmung, % der Alkoholkontrolle): ~80%
Wirkung auf die verschiedenen Zellen des kleinzelligen Bronchialkarzinoms ([1]; single agent): antiproliferative Wirkung

COc1ccc2c(c1)c(CC(=O)O)c(C)n2C(=O)c1ccc(Cl)cc1 [Indometacin, 2-[1-(4-Chlorbenzoyl)-5-methoxy-2-methyl-1H-indol-3-yl]essigsäure]
activity at 200 µM [1, 2]: ~60%
activity at 300 µM [1, 2]: ~60%

Cc1cnc(NC(=O)C2=C(O)c3ccccc3S(=O)(=O)N2C)s1 [Meloxicam, 4-Hydroxy-2-methyl-N-(5-methyl-2-thiazolyl)-2H-1,2-benzothiazin-3-carboxamid-1,1-dioxid]
Wirkung bei H69-Zellen (H69 Zellen): wirkt bei H69-Zellen in den gleichen Dosierungen wie Indomethacin
